Several values for one entry are separate records, joined by “and”; a condition that tells them apart may be missing. Identical values can stand only once.
Tests used:
MATE1 = target: T1, MATE1 (Homo sapiens, UniProt Q96FL8); test: in vitro
T1 sequence (Q96FL8 1-570): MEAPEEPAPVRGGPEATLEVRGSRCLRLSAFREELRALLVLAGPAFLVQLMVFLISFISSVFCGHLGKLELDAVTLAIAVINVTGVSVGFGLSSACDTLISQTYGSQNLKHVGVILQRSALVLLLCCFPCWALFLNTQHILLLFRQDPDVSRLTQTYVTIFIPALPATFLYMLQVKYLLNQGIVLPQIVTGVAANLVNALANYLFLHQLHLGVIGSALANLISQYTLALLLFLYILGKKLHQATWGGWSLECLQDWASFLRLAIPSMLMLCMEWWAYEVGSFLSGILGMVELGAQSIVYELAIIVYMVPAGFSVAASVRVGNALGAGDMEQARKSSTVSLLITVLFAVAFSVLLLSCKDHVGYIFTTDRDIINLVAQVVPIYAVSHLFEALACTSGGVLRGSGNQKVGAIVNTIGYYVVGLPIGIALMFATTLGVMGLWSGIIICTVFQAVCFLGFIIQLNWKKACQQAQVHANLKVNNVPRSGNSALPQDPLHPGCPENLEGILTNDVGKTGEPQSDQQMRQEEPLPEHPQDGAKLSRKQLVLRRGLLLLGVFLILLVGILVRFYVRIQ

CYP1A2 mRNA = test: in vitro; conditions: human
hrCYP2B6 = target: T2, hrCYP2B6 (Homo sapiens, UniProt P20813); test: CYP reaction phenotyping with hrCYP2B6 (% remaining); format: in vitro ADME; conditions: for % Remaining of TA: hrCYP2B6 20 pmol CYP/mL, 5 μM TA, PB and TUDCA co-incubated
T2 sequence (P20813 1-491): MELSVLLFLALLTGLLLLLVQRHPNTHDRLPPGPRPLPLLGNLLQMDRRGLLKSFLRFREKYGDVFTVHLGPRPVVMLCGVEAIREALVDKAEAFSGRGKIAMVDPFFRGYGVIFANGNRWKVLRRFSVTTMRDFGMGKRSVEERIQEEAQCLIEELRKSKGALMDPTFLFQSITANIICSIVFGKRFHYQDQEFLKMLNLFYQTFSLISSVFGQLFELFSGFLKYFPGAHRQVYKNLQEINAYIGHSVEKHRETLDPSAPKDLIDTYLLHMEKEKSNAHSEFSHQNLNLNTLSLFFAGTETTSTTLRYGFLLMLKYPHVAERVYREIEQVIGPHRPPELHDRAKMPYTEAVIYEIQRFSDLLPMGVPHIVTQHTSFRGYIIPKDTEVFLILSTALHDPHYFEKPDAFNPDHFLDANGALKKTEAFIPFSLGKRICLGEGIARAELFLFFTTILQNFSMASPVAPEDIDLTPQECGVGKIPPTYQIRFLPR

hrCYP3A4 = hrCYP3A4 (Homo sapiens, UniProt P08684); test: CYP reaction phenotyping with hrCYP3A4 (% remaining); format: in vitro ADME; conditions: for % Remaining of TA: hrCYP3A4 20 pmol CYP/mL, 5 μM TA, PB and TUDCA co-incubated
[1] = Chemical stability in HBSSg_7.4 and HBSS_8.5; format: physicochemical; conditions: for Chemical stability in the tested matrices: 0.5 μM, 37° C., HBSSg_7.4 and HBSS_8.5
Protocol: At pre-determined time points, an equal volume of acetonitrile with internal standard was added to each vial, and the mixture was placed at 4° C. until the end of the assay. The peak areas of the test article and IS of each sample were determined by LC-MS/MS, and the ratios of the peak areas (analyte:IS) were calculated.

[2] = Relevant plasma concentrations for in vitro transporter assessment; format: in vivo; conditions: for Plasma Cmax (total [I]1): component of AMX0035, highest oral dose TUDCA 1000 mg, PB 3000 mg; for Unbound [I]m, max: projected unbound Iin; for Unbound Cmax (Unbound [I]1): projected, from total Cmax and plasma protein binding
[3] = Solubility assessment in HBSSg_7.4 and HBSSg_8.5; conditions: for Measured Concentration / Percent of the Nominal Concentration: replicates 1-3
[4] = Rat drug-drug interaction study TDF + AMX0035: plasma pharmacokinetics; conditions: for Plasma Concentration of analyte at 8.0 hr / Plasma Concentration of analyte at 0.50 hr / Plasma Concentration of analyte at 1.0 hr / Plasma Concentration of analyte at 2.0 hr / Plasma Concentration of analyte at 4.0 hr / Plasma Concentration of analyte at 24 hr / Plasma Concentration of analyte at […] / AUC0-24 / AUClast / Cmax / Tlast / Tmax: male Sprague Dawley rats; for AUC0-24 / AUClast / Cmax / Tlast / Tmax: oral, plasma
[5] = HBSSg_7.4, Overnight (~1020-[…])
[6] = HBSSg_8.5, Overnight (~1020-[…])
[7] = HBSSg_7.4, target 8005 μM TUDCA, 64447 μM PB
[8] = HBSSg_8.5, target 810 μM TUDCA, 73927 μM PB
[9] = Day 5, AMX0035 + TDF 840/25 mg/kg oral, individual animals, BLQ = <50 ng/mL
[10] = Day 1, TDF only 25 mg/kg oral, individual animals, BLQ = <50 ng/mL
[11] = Day 1, TDF only 25 mg/kg oral, mean of 3, BLQ set to zero
[12] = Day 5, AMX0035 + TDF 840/25 mg/kg oral, mean of 3, BLQ set to zero
[13] = Day 1, TDF only 25 mg/kg, individual animals
[14] = Day 1, TDF only 25 mg/kg, mean, N=3
[15] = Day 5, AMX0035 + TDF 840/25 mg/kg, individual animals
[16] = Day 5, AMX0035 + TDF 840/25 mg/kg, mean, N=3

Sequence of hrCYP3A4 (P08684 whole entry): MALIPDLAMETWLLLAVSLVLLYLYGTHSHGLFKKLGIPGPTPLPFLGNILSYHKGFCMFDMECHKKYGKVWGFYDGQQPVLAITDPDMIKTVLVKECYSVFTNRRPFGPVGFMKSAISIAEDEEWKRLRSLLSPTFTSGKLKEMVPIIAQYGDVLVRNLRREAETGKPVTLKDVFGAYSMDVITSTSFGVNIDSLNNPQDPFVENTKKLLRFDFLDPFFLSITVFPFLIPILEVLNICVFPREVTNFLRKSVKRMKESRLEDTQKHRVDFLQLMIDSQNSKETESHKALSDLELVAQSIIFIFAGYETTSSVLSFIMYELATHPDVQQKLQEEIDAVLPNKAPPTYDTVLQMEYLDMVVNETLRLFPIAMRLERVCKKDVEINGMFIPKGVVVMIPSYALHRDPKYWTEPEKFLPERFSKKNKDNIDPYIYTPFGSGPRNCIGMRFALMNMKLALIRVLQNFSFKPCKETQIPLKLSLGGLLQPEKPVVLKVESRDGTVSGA

C[C@H](CCC(=O)NCC(=O)O)[C@H]1CC[C@H]2[C@@H]3[C@@H](O)C[C@@H]4C[C@H](O)CC[C@]4(C)[C@H]3CC[C@]12C [Glycoursodeoxycholic acid, glycoursodeoxycholic acid]
potency estimated from few doses (MATE1): > 100 µM | EC50 at 72 h (CYP1A2 mRNA; hepatocyte cultures): 1.88 µM | fold induction at 72 h (CYP1A2 mRNA; hepatocyte cultures): 12.2

O=C(O)CCCc1ccccc1 [PB, sodium phenylbutyrate]
% remaining after 60 minutes (hrCYP2B6; human, 1 h, 5 µM, pH 7.4): greater than 90% | % remaining after 60 minutes (hrCYP3A4; human, 1 h, 5 µM, pH 7.4): greater than 90% | Chemical stability in the tested matrices [1]: appeared to be stable | Percent of the 0-minute value ([1]; HBSSg_7.4, 0 minutes): 100% | Percent of the 0-minute value ([1]; HBSSg_7.4, 120 minutes): 99.3% | Percent of the 0-minute value [1, 5]: 105% | Percent of the 0-minute value ([1]; HBSSg_8.5, 0 minutes): 100% | Percent of the 0-minute value ([1]; HBSSg_8.5, 120 minutes): 79.4% | Percent of the 0-minute value [1, 6]: 98.6% | Plasma Cmax (total [I]1) [2]: 826 µM | Unbound [I]m, max [2]: 326 µM | Unbound Cmax (Unbound [I]1) [2]: 148 µM | potency estimated from few doses (MATE1): < 250 µM | Measured Concentration [3, 7]: 52000 µM and 59300 µM and 52800 µM | Percent of the Nominal Concentration [3, 7]: 80.7% and 92.0% and 81.9% | Measured Concentration [3, 8]: 62200 µM and 53200 µM and 61100 µM | Percent of the Nominal Concentration [3, 8]: 84.1% and 72.0% and 82.6% | Plasma Concentration of analyte at 8.0 hr [4, 9]: 102 ng/mL

O=C(O)Cc1ccccc1 [Phenylacetic acid, phenylacetic acid]
EC50 at 72 h (CYP1A2 mRNA): 8.18 µM

tauroursodeoxycholic acid [TUDCA]
% Remaining of TA (hrCYP2B6; 0 min): 100% | % Remaining of TA (hrCYP2B6; 5 min): 97.6% | % Remaining of TA (hrCYP2B6; 10 min): 97.0% | % Remaining of TA (hrCYP2B6; 20 min): 99.3% | % Remaining of TA (hrCYP2B6; 30 min): 99.7% | % Remaining of TA (hrCYP2B6; 60 min): 101% | % Remaining of TA (hrCYP3A4; 0 min): 100% | % Remaining of TA (hrCYP3A4; 5 min): 97.1% | % Remaining of TA (hrCYP3A4; 10 min): 92.1% | % Remaining of TA (hrCYP3A4; 20 min): 91.4% | % Remaining of TA (hrCYP3A4; 30 min): 90.9% | % Remaining of TA (hrCYP3A4; 60 min): 91.1% | Chemical stability in the tested matrices [1]: appeared to be stable | Percent of the 0-minute value ([1]; HBSSg_7.4, 0 minutes): 100% | Percent of the 0-minute value ([1]; HBSSg_7.4, 120 minutes): 101% | Percent of the 0-minute value [1, 5]: 95.3% | Percent of the 0-minute value ([1]; HBSSg_8.5, 0 minutes): 100% | Percent of the 0-minute value ([1]; HBSSg_8.5, 120 minutes): 90.8% | Percent of the 0-minute value [1, 6]: 96.5% | Plasma Cmax (total [I]1) [2]: 108 µM | Unbound [I]m, max [2]: 3.48 µM | Unbound Cmax (Unbound [I]1) [2]: 1.62 µM | Soluble up to target concentration ([3]; HBSSg_7.4, 37° C. overnight): ≥ 8005 µM | Measured Concentration [3, 7]: 6710 µM and 6950 µM and 6770 µM | Percent of the Nominal Concentration [3, 7]: 83.8% and 86.8% and 84.6% | Soluble up to target concentration ([3]; HBSSg_8.5, 37° C. overnight): ≥ 810 µM | Measured Concentration [3, 8]: 719 μM and 704 μM (2×) | Percent of the Nominal Concentration [3, 8]: 88.8% and 86.9% (2×) | Plasma Concentration of analyte at 0.50 hr [4, 10]: 154 ng/mL and 148 ng/mL and 45.4 ng/mL | Plasma Concentration of analyte at 1.0 hr [4, 10]: 239 ng/mL and 197 ng/mL and 108 ng/mL | Plasma Concentration of analyte at 2.0 hr [4, 10]: 313 ng/mL and 186 ng/mL and 76.8 ng/mL | Plasma Concentration of analyte at 4.0 hr [4, 10]: 199 ng/mL and 153 ng/mL and 71.4 ng/mL | Plasma Concentration of analyte at 8.0 hr [4, 10]: 338 ng/mL and 211 ng/mL and 68.8 ng/mL | Plasma Concentration of analyte at 24 hr [4, 10]: 267 ng/mL and 287 ng/mL and 113 ng/mL | Plasma Concentration of analyte at […] [4, 10]: 201 ng/mL and 121 ng/mL and 69.3 ng/mL | Plasma Concentration of analyte at 0.50 hr [4, 11]: 116 ng/mL | Plasma Concentration of analyte at 1.0 hr [4, 11]: 181 ng/mL | Plasma Concentration of analyte at 2.0 hr [4, 11]: 192 ng/mL | Plasma Concentration of analyte at 4.0 hr [4, 11]: 141 ng/mL | Plasma Concentration of analyte at 8.0 hr [4, 11]: 139 ng/mL | Plasma Concentration of analyte at 24 hr [4, 11]: 222 ng/mL | Plasma Concentration of analyte at […] [4, 11]: 130 ng/mL | Mean endogenous plasma levels ([4]; Day 1, no AMX0035, over 24 hours): 130 to 222 ng/mL | Increase of plasma concentration vs Day 1 at each time point ([4]; Day 5): 30-50% | Peak (Cmax) plasma value ([4]; Day 5, AMX0035 840 mg/kg PO): 298 ng/mL | Plasma Concentration of analyte at 0.50 hr [4, 9]: 96.1 ng/mL and 225 ng/mL and 183 ng/mL | Plasma Concentration of analyte at 1.0 hr [4, 9]: 154 ng/mL and 236 ng/mL and 366 ng/mL | Plasma Concentration of analyte at 2.0 hr [4, 9]: 126 ng/mL and 200 ng/mL and 505 ng/mL | Plasma Concentration of analyte at 4.0 hr [4, 9]: 123 ng/mL and 176 ng/mL and 255 ng/mL | Plasma Concentration of analyte at 8.0 hr [4, 9]: 103 ng/mL and 172 ng/mL and 187 ng/mL | Plasma Concentration of analyte at 24 hr [4, 9]: 130 ng/mL and 216 ng/mL and 178 ng/mL | Plasma Concentration of analyte at […] [4, 9]: 84.0 ng/mL and 220 ng/mL and 235 ng/mL | Plasma Concentration of analyte at 0.50 hr [4, 12]: 168 ng/mL | Plasma Concentration of analyte at 1.0 hr [4, 12]: 252 ng/mL | Plasma Concentration of analyte at 2.0 hr [4, 12]: 277 ng/mL | Plasma Concentration of analyte at 4.0 hr [4, 12]: 185 ng/mL | Plasma Concentration of analyte at 8.0 hr [4, 12]: 154 ng/mL | Plasma Concentration of analyte at 24 hr [4, 12]: 175 ng/mL | Plasma Concentration of analyte at […] [4, 12]: 180 ng/mL | AUC0-24 [4, 13]: 2040 ng·h/mL and 4870 ng·h/mL and 5380 ng·h/mL | AUClast [4, 13]: 2040 ng·h/mL and 4870 ng·h/mL and 5380 ng·h/mL | Cmax [4, 13]: 113 ng/mL and 313 ng/mL and 287 ng/mL | Tlast [4, 13]: 24 h | Tmax [4, 13]: 24 h and 2.0 h | AUC0-24 [4, 14]: 409 ng·h/mL | AUClast [4, 14]: 4090 ng·h/mL | Cmax [4, 14]: 238 ng/mL | Tlast [4, 14]: 24 h | Tmax [4, 14]: 17 h | AUC0-24 [4, 15]: 2800 ng·h/mL and 4590 ng·h/mL and 5220 ng·h/mL | AUClast [4, 15]: 2800 ng·h/mL and 4590 ng·h/mL and 5220 ng·h/mL | Cmax [4, 15]: 154 ng/mL and 236 ng/mL and 505 ng/mL | Tlast [4, 15]: 24 h | Tmax [4, 15]: 1.0 h and 2.0 h | AUC0-24 [4, 16]: 4200 ng·h/mL | AUClast [4, 16]: 4200 ng·h/mL | Cmax [4, 16]: 298 ng/mL | Tlast [4, 16]: 24 h | Tmax [4, 16]: 1.3 h

Source: patent US20240139211A1, “METHODS AND COMPOSITIONS FOR TREATING AMYOTROPHIC LATERAL SCLEROSIS” (Amylyx Pharmaceuticals, Inc., priority 2022, published 2024)
